In brackets after ≈: the same amount, converted by molar mass. Several values for one entry are separate records, joined by “and”; a condition that tells them apart may be missing. Equal entries are not always repeated.
Experiments:
[1] = system: Mice splenocytes; assay: Concanavalin-A induced lymphocyte proliferation (LPT); format: cell-based
Experimental: (a) Concanavalin-A induced lymphocyte proliferation (LPT)
Mice splenocytes are adjusted in RPMI 1640 medium (with conventional additions of streptomycin, penicillin, L-glutamine and 10% fetal calf serum) to a cell density of 2×10^6 viable cells per ml. 200 μl of this cell suspension are mixed with 20 μl of an 11-fold concentrated solution of the substance to be tested. 0,5 /μg of Concanavalin A in 10 μl of phosphate buffered saline solution (PBS) are added as mitogenic stimulus to each culture. 5 hours before the end of the 48 h incubation period, the individual cultures receive 20 /μl of a 3H-thymidine solution and the proliferation of the cells is determined by means of incorporated radioactivity.
(§1) For the upper two compounds the means plus standard deviations from n experiments are shown.

[2] = system: Meth A fibrosaccoma cell line; assay: Tumor-growth Inhibition Test (TGI); format: cell-based, mice; settings: 48 h, 3H thymidine incorporation, Imexon and Ex. 1: mean ± standard deviation of n experiments, others: single tests No. 1-3; for IC50: Mus musculus, Meth-A
Experimental: (b) Tumor-growth Inhibition Test
A Meth A fibrosaccoma cell line is passaged weekly as ascites in mice. After the ascites is punctured, the cells are washed and adjusted to a cell density of 5×10^4 vital cells/ml in the aforementioned medium. 200 /μl of this suspension are pipetted into the cavities of a microtitration plate and solution of the substances to be tested are added as above. 3 hours before the end of the 48 h incubation period ^3 H thymidine is added. The proliferation of the individual cultures is determined by the incorporated radioactive thymidine.
as §1

[3] = system: human B lymphocytes; assay: B-cell growth factor dependent proliferation of human B lymphocytes (BCGF); format: cell-based; settings: BCGF stimulated, 140 h, 3H thymidine incorporation, Imexon and Ex. 1: mean ± standard deviation of n experiments, others: single tests No. 1-3; for IC50: Homo sapiens, Lymphocyte
Excerpt: (d) B-cell growth factor dependent proliferation of human B lymphocytes (BCGF). The macrophage/monocytes are removed from the mononuclear cell fraction (see above) by adhesion to plastic petri dishes. T lymphocytes are separated by rosetting with neuraminidase-treated sheep erythrocytes. The enriched human B-lymphocyte population so obtained is adjusted to 3×10^5 /ml. 160 /μl of this suspension together with 10 /μl of BCGF (B cell growth factor) and 20 /μl of the substance dilution to be tested are incubated for a total of 140 h. 16 h before the end of incubation, ^3 H thymidine is added and analysis is carried out as already described. […] For the upper two compounds the means plus standard deviations from n experiments are shown.

[4] = system: human T-lymphocytes; assay: Interleukin-2 dependent proliferation of human T-lymphocytes (IL-2); format: cell-based; settings: IL-2 stimulated, 48 h, 3H thymidine incorporation, Imexon and Ex. 1: mean ± standard deviation of n experiments, others: single tests No. 1-3; for IC50: Homo sapiens, T-lymphocyte
Experimental: (c) Interleukin-2 dependent proliferation of human T-lymphocytes (IL-2)
The mononuclear cell fraction is separated from heparinized human whole blood by means of a Ficoll gradient. After washing twice, the cell number is adjusted to 1×10^6 ml and incubation is carried out with 3 /μg/ml of Concanavalin A for 3 days. After washing twice, the cell number is set to 5×10^5 cells/ml. 160 /μl of this cell suspension are incubated with 20 /μl IL-2 and 20 /μl of a dilution of the test substance in microtitration plates for a total of 48 h. 4 hours before the end of incubation, ^3 H thymidine is added. The proliferation of the cultures is determined by means of the incorporated radioactivity.
as §1

[5] = Concanavalin A stimulated, 48 h, 3H-thymidine incorporation; Imexon and Ex. 1: mean ± standard deviation of n experiments, others: single tests No. 1-3
[6] = Mus musculus, Splenocyte, Concanavalin A stimulated, 48 h, 3H-thymidine incorporation; Imexon and Ex. 1: mean ± standard deviation of n experiments, others: single tests No. 1-3

| SMILES | IC50 LPT [1, 5] | IC50 [2] | IC50 BCGF [3] | IC50 [3] | IC50 ([1]; Mus musculus, Splenocyte, 48 h, Concanavalin A stimulated, 3H-thymidine incorporation, Imexon and Ex. 1: mean ± standard deviation of n experiments, others: single tests No. 1-3) | IC50 [4] | IC50 TGI [2] | IC50 IL 2 [4] | IC50 [1, 6] |
| --- | --- | --- | --- | --- | --- | --- | --- | --- | --- |
| CC(C)=C1NC(=O)NC1=N [Ex. 3, 4-Imino-5-isopropylideneimidazolidin-2-one] | 20,7 /μg/ml and > 10 /μg/ml | – | – | – | – | – | – | – | – |
| C=C1NC(=O)N(Cc2ccccc2)C1=N [Ex. 4, 3-Benzyl-4-imino-5-methyleneimidazolidin-2-one] | – | 2.8 µg/mL (≈ 13.9 µM) | 1,6 /μg/ml | < 3 µg/mL | – | – | – | – | – |
| C=C1NC(=O)NC1=N [Ex. 1, 4-Imino-5-methyleneimidazolidin-2-one] | – | > 10.3 µg/mL | – | 1.9 µg/mL (≈ 17.1 µM) | 3.9 µg/mL (≈ 35.1 µM) | 2.6 µg/mL (≈ 23.4 µM) | – | – | – |
| C=C1NC(=O)N(Cc2ccncc2)C1=N [Ex. BV16, 3-(4-pyridylmethyl)-4-imino-5-methyleneimidazolidin2-one] | – | 3.9 µg/mL (≈ 19.3 µM) | – | – | – | 3.5 µg/mL (≈ 17.3 µM) | 5,1 /μg/ml and 5,5 /μg/ml | 4,8 /μg/ml | – |
| C=C1NC(=O)N(C)C1=N [Ex. BV11, 3-methyl-4-imino-5-methyleneimidazolidin-2-one] | – | 4.2 µg/mL (≈ 33.6 µM) | – | – | – | ≤ 3 µg/mL | 2,3 /μg/ml | – | – |
| C=C1NC(=O)N(CCC)C1=N [Ex. BV12, 3-n-propyl-4-imino-5-methyleneimidazolidin-2-one] | – | 7.5 µg/mL (≈ 49 µM) | 2,6 /μg/ml | 3.2 µg/mL (≈ 20.9 µM) | – | 5.1 µg/mL (≈ 33.3 µM) | – | 4,6 /μg/ml | – |
| C=C1NC(=O)N(c2ccccc2)C1=N [Ex. BV17, 3-phenyl-4-imino-5-methyleneimidazolidin-2-one] | – | < 3 µg/mL | – | – | – | – | 2,1 /μg/ml and 3,5 /μg/ml | – | – |
| C=C1NC(=O)N(C2CCCCC2)C1=N [Ex. BV14, 3-cyclohexyl-4-imino-5-methyleneimidazolidin-2-one] | – | – | – | < 3 µg/mL | – | – | – | – | – |
| CC=C1NC(=O)NC1=N [Ex. 2, 4-imino-5-ethylideneimidazolidin2-one] | 11,1 /μg/ml | 22.6 µg/mL (≈ 181 µM) | – | – | – | > 10 µg/mL | > 30 µg⁻¹ mL⁻¹ | – | 12 µg/mL (≈ 95.9 µM) |
| N=C1NC(=O)N2CC12 (centres unmarked) [Imexon, 4-imino-1,3-diazabicyclo[3.1.0]hexan-2-one, reference compound] | – | 11.3 µg/mL (≈ 102 µM) | – | 0.9 µg/mL (≈ 8.1 µM) | – | 5.1 µg/mL (≈ 45.9 µM) | – | – | 6.3 µg/mL (≈ 56.7 µM) |

— patent publication US4996219A, “Imidazolidine derivatives as immunosuppressives” (Boehringer Mannheim GmbH, priority 1988, dated 1991)
